PMC5466632, “Clinical on-site monitoring of ß-lactam antibiotics for a personalized antibiotherapy” (Scientific Reports, 2017)
Where two headings read alike, the source gives them in different places.

How the values were obtained:
[1] = biological target: T1, PBP3 (penicillin-binding protein 3, PBP3*) (Streptococcus pneumoniae, UniProt Q8DQ99); assay: competitive enzyme-linked assay on electrochemical microfluidic chip, avidin-glucose oxidase readout
T1 construct: gene dacA; soluble truncated PBP3 (Gly15-Lys394), N-terminal hexa-His tag kept, synthetic gene, expressed in E. coli BL21*(DE3) pLysS, Ni-NTA purified; captured on anti-His antibody
T1 sequence (Q8DQ99 15-394): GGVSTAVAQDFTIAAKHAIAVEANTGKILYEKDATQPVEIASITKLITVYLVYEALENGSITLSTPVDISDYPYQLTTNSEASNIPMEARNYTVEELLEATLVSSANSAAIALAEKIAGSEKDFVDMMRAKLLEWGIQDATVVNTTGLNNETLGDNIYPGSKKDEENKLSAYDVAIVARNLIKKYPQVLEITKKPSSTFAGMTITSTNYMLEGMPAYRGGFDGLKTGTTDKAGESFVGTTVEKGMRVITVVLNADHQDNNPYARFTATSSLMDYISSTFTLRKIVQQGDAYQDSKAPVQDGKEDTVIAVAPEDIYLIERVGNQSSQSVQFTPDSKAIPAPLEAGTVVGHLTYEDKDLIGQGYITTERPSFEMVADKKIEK
Description: competitive enzyme-linked assay on electrochemical microfluidic chip, avidin-glucose oxidase readout on PBP3 (penicillin-binding protein 3, PBP3*)

[2] = biological target: T1, PBP3 (penicillin-binding protein 3, PBP3*); assay: competitive enzyme-linked assay on microtiter plate, optical readout; conditions: competition with ampicillin-biotin conjugate

CCN1CCN(C(=O)N[C@@H](C(=O)N[C@@H]2C(=O)N3[C@@H]2SC(C)(C)[C@@H]3C(=O)O)c2ccccc2)C(=O)C1=O [piperacillin]
IC50 ([1]; read-out: Piperacillin (converted)): 35.5 nM

CC1(C)S[C@@H]2[C@H](NC(=O)[C@H](N)c3ccccc3)C(=O)N2[C@H]1C(=O)O [ampicillin]
competitive enzyme-linked assay on microtiter plate, optical readout [2]: confirmed via the optical quantification of ampicillin on a microtiter plate

Cc1nnc(SCC2=C(C(=O)O)N3C(=O)[C@@H](NC(=O)Cn4cnnn4)[C@H]3SC2)s1 [cefazolin]
IC50 ([1]; read-out: Cefazolin (converted)): 19.2 nM

CO/N=C(\C(=O)N[C@@H]1C(=O)N2C(C(=O)O)=C(COC(N)=O)CS[C@H]12)c1ccco1 [cefuroxime]
IC50 ([1]; read-out: Cefuroxime (converted)): 26.1 nM
